Source: patent EP4745139A1, “COMPOUND FOR TREATING AND PREVENTING RESPIRATORY SYNCYTIAL VIRUS INFECTION DISEASES” (CSPC Zhongqi Pharmaceutical Technology (Shijiazhuang) Co., …, priority 2023, dated 2025)

System: RSV strain A2
Assay: Antiviral detection test against RSV strain A2 based on ELISA method (Hep-2 cells)
Type: cell-based, Respiratory Syncytial Virus
Conditions: for IC50: RSV A2 virus strain, Hep-2 cells, ELISA OD450; for AK0529 IC50 / IC50 of the compounds of the present invention: ratio of IC50 values against RSV A2 virus strain, control compound AK0529
Procedure: Test Example 1: Antiviral detection test of small molecules against RSV strain A2 based on ELISA method
• Source of cell line: Nanjing Kebai Biotechnology Co., Ltd. • Cell type: human laryngeal carcinoma epithelial cells Hep-2
• 96-well culture plate (Cat.No. 3610, Corning Costar); • Fetal bovine serum (Cat.No. 10099-141, GIBCO); • DMEM medium (Cat.No. 11995500BT, GIBCO); • Envision 2104 microplate reader.
• 1. Day 1: The Hep-2 cells were seeded into a 96-well plate at a density of 1×10^4 cells/well; • 2. Day 2: • A. Compound dilution: The compound in the first well was diluted to 9 µM, and 3-fold gradient dilution was performed, with a total of 10 gradients; • B. The Hep-2 cell plate prepared on Day 1 was taken out from the incubator, the supernatant was discarded, and 100 PFU/well/50 µL of the RSV A2 virus was added to each well. The plate was stood at 37°C in a 5% CO2 incubator for 2 hours, the supernatant was aspirated and discarded, and then 100 µL of the gradient-diluted compound or DMEM maintenance medium containing 2% FBS was added to each well; • 3. Day 5: • A. Add fixative: The gradient-diluted compound or medium was discarded from the wells, and 100 µL/well of fixative (4% paraformaldehyde) was added. The plate was stood at room temperature for 10 minutes, and then was washed once with 250 µL PBS; • B. 100 µL/well of a blocking solution was added, and the plate was incubated at 37°C in a 5% CO2 incubator for 30 minutes; • C. After incubation, the detection antibody (Anti RSV Fpro) was added at 0.3 µg/50 µL/well (6 µg/mL), and the plate was incubated at 37°C in a 5% CO2 incubator for 1 hour; • D. After incubation, the HRP secondary antibody was added (diluted 10,000-fold with 0.2% BSA), and the plate was incubated at 37°C in a 5% CO2 incubator for 1 hour; • E. After incubation, the wells were washed for 4 times with PBST, 250 µL/well, each washing was allowed to stand for 5 minutes, and the liquid in the wells was shaken off after completion of the washing; • F. 100 µL/well of a development solution was added, the plate was incubated at room temperature in the dark for 20 minutes, and 50 µL/well of a reaction termination solution was added. The plate was tapped gently to mix the solutions, and the absorbance at 450 nm was measured using the microplate reader. • 4. Data analysis • Inhibition rate of the compound against the virus = 100% - (SC - CC)/(VC - CC) × 100% • SC: OD450 value of the sample (cells + test compound + virus) • CC: OD450 value of the normal growing cell control (cells) • VC: OD450 value of the virus growth control (cells + virus)
The software Graphpad Prism 6 was used, and the calculation formula XY-analysis/Nonlinear regression (curve fit)/Dose response-Inhibition/log (inhibition) vs. response-Variable slope (four parameters) was adopted to fit the IC50 curve and calculate the IC50 value.

[1] = human respiratory syncytial virus

Molecule	IC50 [1] [nM]	AK0529 IC50 / IC50 of the compounds of the present invention	IC50 [nM]
CN=S1(=O)CCN(c2nc(NCC3(N)COC3)c3cc(C)ccc3n2)Cc2ccccc21 (centres unmarked) [Example 2-14, 4-(4-(((3-aminooxetan-3-yl)methyl)amino)-6-methylquinazolin-2-yl)-1-(methylimino)-2,3,4,5-tetrahydro-1H-1λ^4-benzo[f][1,4]thiazepine-1-oxide]	< 10		
Cc1ccc2nc(N3CCS(=O)(=Nc4cnn(C)c4)c4ccccc4C3)nc(NCC3(N)COC3)c2c1 (centres unmarked) [Example 2-38, 4-(4-(((3-aminooxetan-3-yl)methyl)amino)-6-methylquinazolin-2-yl)-1-((1-methyl-1H-pyrazol-4-yl)imino)-2,3,4,5-tetrahydro-1H-1λ^4-benzo[f][1,4]thiazepine-1-oxide]	> 10		
Cc1ccc2nc(N3CCS(=O)(=NCCCO)c4ccccc4C3)nc(N3CC[C@H](N)C3)c2c1 (some centres unmarked) [Example 4-64]	< 10		
Cc1ccc2nc(N3CCS(=O)(=NCCF)c4ccccc4C3)nc(NCC3(N)COC3)c2c1 (centres unmarked) [Example 4-5, 4-(4-(((3-aminooxetan-3-yl)methyl)amino)-6-methylquinazolin-2-yl)-1-((2-fluoroethyl)imino)-2,3,4,5-tetrahydrobenzo[f][1,4]thiazepine-1-oxide]	< 10		
Cc1ccc2nc(N3CCS(=O)(=NC4CC4)c4ccccc4C3)nc(N3CC(O)(CN)C3)c2c1 (centres unmarked) [Example 4-2, 4-(4-(3-(aminomethyl)-3-hydroxyazetidin-1-yl)-6-methylquinazolin-2-yl)-1-(cyclopropylimino)-2,3,4,5-tetrahydro-benzo[f][1,4]thiazepine-1-oxide]	< 10		
Cc1ccc2nc(N3CCS(=O)(=NC4CC4)c4ccccc4C3)nc(N3CC(N)(CO)C3)c2c1 (centres unmarked) [Example 4-32, 4-(4-(3-amino-3-(hydroxymethyl)azetidin-1-yl)-6-methylquinazolin-2-yl)-1-(cyclopropylimino)-2,3,4,5-tetrahydro-benzo[f][1,4]thiazepine-1-oxide]	< 10		
NC1(CNc2nc(N3CCS(=O)(=NC4CCC4)c4ccccc4C3)nc3ccc(C(F)F)cc23)COC1 (centres unmarked) [Example 4-16, 4-(4-(((3-aminooxetan-3-yl)methyl)amino)-6-(difluoromethyl)quinazolin-2-yl)-1-(cyclobutylimino)-2,3,4,5-tetrahydro-benzo[f][1,4]thiazepine-1-oxide]	< 10	ratio ≥20	
Cc1ccc2nc(N3CCS(=O)(=NC4CC4)c4ccccc4C3)nc(NCC3(N)COC3)c2c1 (centres unmarked) [Example 2-26, 4-(4-(((3-aminooxetan-3-yl)methyl)amino)-6-methylquinazolin-2-yl)-1-(cyclopropylimino)-2,3,4,5-tetrahydro-1H-1λ^4-benzo[f][1,4]thiazepine-1-oxide]	< 10		
N[C@@H]1CCN(c2nc(N3CCS(=O)(=NC4CC4)c4ccccc4C3)nc3ccc(C(F)F)cc23)C1 (some centres unmarked) [Example 4-28]	< 10		
Cc1ccc2nc(N3CCS(=O)(=NC(=O)C4(F)CC4)c4ccccc4C3)nc(NCC3(N)COC3)c2c1 (centres unmarked) [Example 2-32, N-(4-(4-(((3-aminooxetan-3-yl)methyl)amino)-6-methylquinazolin-2-yl)-1-oxido-2,3,4,5-tetrahydro-1λ^4-benzo[f][1,4]thiazepin-1-ylidene)-1-fluorocyclopropane-1-carboxamide]	< 10		
Cc1ccc2nc(N3CCS(=O)(=NCC4CCOC4)c4ccccc4C3)nc(N3CC[C@H](N)C3)c2c1 (some centres unmarked) [Example 4-72]	< 10		
Cc1ccc2nc(N3CCS(=O)(=NC(N)=O)c4ccccc4C3)nc(NCC3(N)COC3)c2c1 (centres unmarked) [Example 2-16, 1-(4-(4-(((3-aminooxetan-3-yl)methyl)amino)-6-methylquinazolin-2-yl)-1-oxido-2,3,4,5-tetrahydro-1λ^4-benzo[f][1,4]thiazepin-1-ylidene)urea]			> 10
COC(=O)C1(CN)CN(c2nc(N3CCS(=O)(=NC4CC4)c4ccccc4C3)nc3ccc(C)cc23)C1 (centres unmarked) [Example 4-57, methyl 3-(aminomethyl)-1-(2-(1-(cyclopropylimino)-1-oxido-1,2,3,5-tetrahydro-benzo[f][1,4]thiazepin-4-yl)-6-methylquinazolin-4-yl)azetidine-3-carboxylate]	< 10	ratio ≥20	
Cc1ccc2nc(N3CCS(=O)(=NCCCC#N)c4ccccc4C3)nc(N3CC[C@@H](N)C3)c2c1 (some centres unmarked) [Example 4-47]	< 10		
Cc1ccc2nc(N3CCS(=O)(=NCCS(C)(=O)=O)c4ccccc4C3)nc(N3CC[C@H](N)C3)c2c1 (some centres unmarked) [Example 4-65]	< 10		
Cc1ccc2nc(N3CCS(=O)(=NCC4CCCO4)c4ccccc4C3)nc(N3CC[C@H](N)C3)c2c1 (some centres unmarked) [Example 4-70]	< 10		
4-(4-(((3-aminooxetan-3-yl)methyl)amino)-6-methylquinazolin-2-yl)-1-((deuteromethyl)imino)-2,3,4,5-tetrahydro-1H-1λ^4-benzo[f][1,4]thiazepine-1-oxide [Example 2-24]		ratio ≥20	< 10
Cc1ccc2nc(N3CCS(=O)(=NCC4CCO4)c4ccccc4C3)nc(N3CC[C@@H](N)C3)c2c1 (some centres unmarked) [Example 4-39]			< 10
Cc1ccc2nc(N3CCS(=O)(=NCC(F)F)c4ccccc4C3)nc(NCC3(N)COC3)c2c1 (centres unmarked) [Example 4-6, 4-(4-(((3-aminooxetan-3-yl)methyl)amino)-6-methylquinazolin-2-yl)-1-((2,2-difluoroethyl)imino)-2,3,4,5-tetrahydrobenzo[f][1,4]thiazepine-1-oxide]	< 10		
COCCCN=S1(=O)CCN(c2nc(N3CC[C@@H](N)C3)c3cc(C)ccc3n2)Cc2ccccc21 (some centres unmarked) [Example 4-73]	< 10		
CCN=S1(=O)CCN(c2nc(NCC3(N)COC3)c3cc(C)ccc3n2)Cc2ccccc21 (centres unmarked) [Example 2-43, 4-(4-(((3-aminooxetan-3-yl)methyl)amino)-6-methylquinazolin-2-yl)-1-(ethylimino)-2,3,4,5-tetrahydro-1H-1λ^4-benzo[f][1,4]thiazepine-1-oxide]	< 10		
Cc1ccc2nc(N3CCS(=N)(=O)c4ccccc4C3)nc(NCC3(N)COC3)c2c1 (centres unmarked) [Example 2-23, 4-(4-(((3-aminooxetan-3-yl)methyl)amino)-6-methylquinazolin-2-yl)-1-imino-2,3,4,5-tetrahydro-1H-1λ^4-benzo[f][1,4]thiazepine-1-oxide]	< 10		
CC(=O)N=S1(=O)CCN(c2nc(NCC3(N)COC3)c3cc(C)ccc3n2)Cc2ccccc21 (centres unmarked) [Example 2-31, N-(4-(4-(((3-aminooxetan-3-yl)methyl)amino)-6-methylquinazolin-2-yl)-1-oxido-2,3,4,5-tetrahydro-1λ^4-benzo[f][1,4]thiazepin-1-ylidene)acetamide]	< 10		
Cc1ccc2nc(N3CCS(=O)(=NCCC(C)(C)O)c4ccccc4C3)nc(N3CC[C@@H](N)C3)c2c1 (some centres unmarked) [Example 4-56]	< 10		
Cc1ccc2nc(N3CCS(=O)(=NC4CC4)c4ccccc4C3)nc(N[C@H]3C[C@@H](N)C3)c2c1 (stereo partly drawn) [Example 4-13, 4-(4-(((1R,3S)-3-aminocyclobutyl)amino)-6-methylquinazolin-2-yl)-1-(cyclopropylimino)-2,3,4,5-tetrahydro-benzo[f][1,4]thiazepine-1-oxide]	< 10		
Cc1ccc2nc(N3CCS(=O)(=NC4CC4)c4ccccc4C3)nc(N[C@@H]3CNC[C@H]3O)c2c1 (stereo partly drawn) [Example 4-10, 1-(cyclopropylimino)-4-(4-(((3R,4R)-4-hydroxypyrrolidin-3-yl)amino)-6-methylquinazolin-2-yl)-2,3,4,5-tetrahydro-benzo[f][1,4]thiazepine-1-oxide]	< 10		
NC1(CNc2nc(N3CCS(=O)(=NC4CC4)c4ccccc4C3)nc3ccc(C(F)F)cc23)COC1 (centres unmarked) [Example 2-46, 4-(4-(((3-aminooxetan-3-yl)methyl)amino)-6-(difluoromethyl)quinazolin-2-yl)-1-(cyclopropylimino)-2,3,4,5-tetrahydro-1H-1λ^4-benzo[f][1,4]thiazepine-1-oxide]	< 10	ratio ≥20	
N[C@H]1CCN(c2nc(N3CCS(=O)(=NCCCO)c4ccccc4C3)nc3ccc(C(F)F)cc23)C1 (some centres unmarked) [Example 4-66]	< 10		
